# Results taken from patent US20250257064A1, “TRIFLUOROMETHYL-SUBSTITUTED SULFONAMIDE AS BCL-2-SELECTIVE INHIBITOR” (Chia Tai Tianqing Pharmaceutical Group Co., Ltd., priority 2018, published 2025).
# How the values were obtained:
# BCL-2/BAK = target: T1, BCL-2/BAK (Homo sapiens, UniProt P10415); experiment: Screening on inhibitory activity for BCL-2/BAK binding (Cisbio HTRF kit)
# T1 construct: purchased Cisbio
# Description: 1.1 Screening on Inhibitory Activity for BCL-2/BAK Binding
# 500 nM Tag1-BCL-2 protein stock solution and 20 μM Tag2-BAK protein stock solution were diluted to 5 nM and 120 nM respectively with dilution buffer in kit (model: BCL-2/BAK (BH3) BINDING ASSAY KITS, from Cisbio). 5 μL of Tag1-BCL-2 protein diluent was added to each well, then different compounds dissolved with DMSO were added to the wells with a nanoliter pipettor, allowing the final compound concentrations to be 200 nM to 0.0488 nM (4-fold gradient for 7 concentrations in total). Blank control wells (without enzyme) and negative control wells (with enzyme, plus vehicle DMSO) were set, and 2 replicate wells were set. Finally, 5 μL of Tag2-BAK protein diluent was added to each well, and the mixture was mixed well by centrifugation and incubated at 25° C. for 15 min. 100× anti-Tag1-Eu^3+ and 100× anti-Tag2-XL665 were both diluted to 1× working concentration with the detection buffer in the kit. Anti-Tag1-Eu^3+ and anti-Tag2-XL665 were mixed well in a 1:1 ratio, and the mixture was added to wells at 5 μL/well, and incubated at 25° C. for 2 h or more. The plate was read using a PE Envision multi-functional microplate reader (excitation: […], emission: 665 nm) and IC50 (shown in table 1) was calculated by four-parameter fitting.
# RS4;11 cells = experiment: Inhibitory effect on proliferation of RS4;11 cells (CCK-8); type: cell-based, human; details: Homo sapiens, RS4-11, 72 h
# Description: Experimental Example 2: Inhibitory Effect of Compounds on Proliferation of RS4;11 Cells
# RS4;11 cells (from Nanjing Cobioer) in logarithmic growth phase and good cell condition were added to a centrifuge tube and centrifuged at 1500 rpm for 3 min in a low speed centrifuge. The supernatant was discarded, and 5 mL of complete medium (RPMI basic medium+10 wt % fetal bovine serum (FBS)) was added using a pipette for cell resuspension. The cells were counted using a cell counter, diluted with complete medium to a cell density of 2×10^5 cells/mL, and added with an equivalent amount of RPMI basic medium to adjust the serum concentration to 5% and the cell density to 1×10^5 cells/mL for plate seeding. The cells were seeded on a 96-well plate at 100 μL/well using a pipettor, and incubated in an incubator at 37° C., 5% CO2 with saturated humidity. After 24 h of incubation, compounds were loaded using a nanoliter pipettor, 2 duplicate wells were set for each concentration, and cells without compound were used as negative controls. […] Inhibition rate (%)=(mean value of negative control group—mean value of experimental group)/(mean value of negative control group—mean value of blank group)×100%. A dose-response curve was fitted by four-parameter analysis, with the logarithm of compound concentration serving as abscissa and inhibition rate serving as ordinate, so that IC50 was calculated (FIG. 2).
# BCL-XL/BAK = target: T2, BCL-XL/BAK (Homo sapiens, UniProt Q07817); experiment: Screening on inhibitory activity for BCL-XL/BAK binding (Cisbio HTRF kit)
# T2 construct: purchased Cisbio
# T2 sequence (Q07817 whole entry, species assumed): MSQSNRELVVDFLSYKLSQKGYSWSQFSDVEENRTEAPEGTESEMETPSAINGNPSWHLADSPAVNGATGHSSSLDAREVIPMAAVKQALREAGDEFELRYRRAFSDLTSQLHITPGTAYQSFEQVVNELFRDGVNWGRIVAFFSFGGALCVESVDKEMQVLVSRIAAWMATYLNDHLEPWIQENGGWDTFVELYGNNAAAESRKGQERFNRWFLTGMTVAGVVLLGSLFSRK
# Description: 1.2 Screening on Inhibitory Activity for BCL-XL/BAK Binding
# 300 nM Tag1-BCL-XL protein stock solution and 10 μM Tag2-BAK protein stock solution were diluted to 2 nM and 80 nM respectively with dilution buffer in kit (model: BCL-XL/BAK (BH3) BINDING ASSAY KITS, from Cisbio). 5 μL of Tag1-BCL-XL protein diluent was added to each well, then different compounds dissolved with DMSO were added to the wells with a nanoliter pipettor, allowing the final compound concentrations to be 2000 nM to 0.488 nM (4-fold gradient for 7 concentrations in total). Blank control wells (without enzyme) and negative control wells (with enzyme, plus vehicle DMSO) were set, and 2 replicate wells were set. Finally, 5 μL of Tag2-BAK protein diluent was added to each well, and the mixture was mixed well by centrifugation and incubated at 25° C. for 15 min. 100× anti-Tag1-Eu^3+ and 100× anti-Tag2-XL665 were both diluted to 1× working concentration with the detection buffer in the kit. Anti-Tag1-Eu^3+ and anti-Tag2-XL665 were mixed well in a 1:1 ratio, and the mixture was added to wells at 5 µL/well, and incubated at 25° C. for 2 h or more. The plate was read using a PE Envision multi-functional microplate reader (excitation: […], emission: 665 nm) and IC50 (shown in table 1) was calculated by four-parameter fitting.
# T1 sequence (P10415 whole entry, species assumed): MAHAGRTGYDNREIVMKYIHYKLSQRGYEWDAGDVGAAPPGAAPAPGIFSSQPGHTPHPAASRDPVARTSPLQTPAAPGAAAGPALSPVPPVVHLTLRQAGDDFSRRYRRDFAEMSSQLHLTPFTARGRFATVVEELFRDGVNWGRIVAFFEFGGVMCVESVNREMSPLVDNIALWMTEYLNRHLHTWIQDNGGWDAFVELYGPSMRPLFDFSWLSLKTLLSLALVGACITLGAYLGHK
IC50 (BCL-2/BAK) [nM],IC50 (RS4;11 cells) [nM],IC50 (BCL-XL/BAK) [nM],Compound
1.1,1,–,CN(C)CC(=O)N1CCC(CNc2ccc(S(=O)(=O)NC(=O)c3ccc(N4CCN(CC5=C(c6ccc(C(F)(F)F)cc6Cl)CC(C)(C)CC5)CC4)cc3Oc3cnc4[nH]ccc4c3)cc2[N+](=O)[O-])CC1 [Compound 59-1]
5.1,10,302,CC(C)C(=O)N1CCC(CNc2ccc(S(=O)(=O)NC(=O)c3ccc(N4CCN(CC5=C(c6ccc(C(F)(F)F)cc6Cl)CC(C)(C)CC5)CC4)cc3Oc3cnc4[nH]ccc4c3)cc2[N+](=O)[O-])CC1 [Compound 23-1]
1.52,3.2,–,"CC(=O)N1CCO[C@@H](CNc2ccc(S(=O)(=O)NC(=O)c3ccc(N4CCN(CC5=C(c6ccc(C(F)(F)F)cc6Cl)CC(C)(C)CC5)CC4)cc3Oc3cnc4[nH]ccc4c3)cc2[N+](=O)[O-])C1 [Compound 61-1, (S)-4-(4-{[2-(2-chloro-4-trifluoromethylphenyl)-4,4-dimethylcyclohex-1-enyl]methyl}-piperazin-1-yl)-N-({3-nitro-4-[((4-acetylmorpholin-2-yl)methyl)amino]phenyl}sulfonyl)-2-(1H-pyrrolo[2,3-b]pyridin-5-yloxy)-benzamide]"
1.9,1.1,–,"CC1(C)CCC(CN2CCN(c3ccc(C(=O)NS(=O)(=O)c4ccc(NCC5CN(C(=O)CC#N)CCO5)c([N+](=O)[O-])c4)c(Oc4cnc5[nH]ccc5c4)c3)CC2)=C(c2ccc(C(F)(F)F)cc2Cl)C1 (centres unmarked) [Compound 51-1, 4-(4-{[2-(2-chloro-4-trifluoromethylphenyl)-4,4-dimethylcyclohex-1-enyl]methyl}-piperazin-1-yl)-N-({3-nitro-4-[((4-(2-cyanoacetyl)morpholin-2-yl)methyl)amino]phenyl}sulfonyl)-2-(1H-pyrrolo[2,3-b]pyridin-5-yloxy)-benzamide]"
0.8,–,> 2000,"CC1(C)CCC(CN2CCN(c3ccc(C(=O)NS(=O)(=O)c4ccc(NCC5CCOCC5)c([N+](=O)[O-])c4)c(Oc4cnc5[nH]ccc5c4)c3)CC2)=C(c2ccc(C(F)(F)F)c(Cl)c2)C1 [Compound 4-1, 4-(4-{[2-(3-chloro-4-trifluoromethylphenyl)-4,4-dimethylcyclohex-1-enyl]methyl}-piperazin-1-yl)-N-({3-nitro-4-[(tetrahydro-2H-pyran-4-ylmethyl)amino]phenyl}sulfonyl)-2-(1H-pyrrolo[2,3-b]pyridin-5-yloxy)-benzamide]"
2.4,4.1,–,"CC1(C)CCC(CN2CCN(c3ccc(C(=O)NS(=O)(=O)c4ccc(NCCC5CN(S(C)(=O)=O)CCO5)c([N+](=O)[O-])c4)c(Oc4cnc5[nH]ccc5c4)c3)CC2)=C(c2ccc(C(F)(F)F)cc2Cl)C1 (centres unmarked) [Compound 21-1, 4-(4-{[2-(2-chloro-4-trifluoromethylphenyl)-4,4-dimethylcyclohex-1-enyl]methyl}-piperazin-1-yl)-N-({3-nitro-4-[(2-(4-(methylsulfonyl)morpholin-2-yl)ethyl)amino]phenyl}sulfonyl)-2-(1H-pyrrolo[2,3-b]pyridin-5-yloxy)-benzamide]"
1.1,1.3,–,CN(C)CC(=O)N1CCCC(CNc2ccc(S(=O)(=O)NC(=O)c3ccc(N4CCN(CC5=C(c6ccc(C(F)(F)F)cc6Cl)CC(C)(C)CC5)CC4)cc3Oc3cnc4[nH]ccc4c3)cc2[N+](=O)[O-])C1 (centres unmarked) [Compound 60-1]
5.11,–,556,"CCN1CCOCC1CNc1ccc(S(=O)(=O)NC(=O)c2ccc(N3CCN(CC4=C(c5ccc(C(F)(F)F)cc5Cl)CC(C)(C)CC4)CC3)cc2Oc2cnc3[nH]ccc3c2)cc1[N+](=O)[O-] (centres unmarked) [Compound 24-1, 4-(4-{[2-(2-chloro-4-trifluoromethylphenyl)-4,4-dimethylcyclohex-1-enyl]methyl}-piperazin-1-yl)-N-({3-nitro-4-[((4-ethylmorpholin-3-yl)methyl)amino]phenyl}sulfonyl)-2-(1H-pyrrolo[2,3-b]pyridin-5-yloxy)-benzamide]"
2.18,–,243,"CC1(C)CCC(CN2CCN(c3ccc(C(=O)NS(=O)(=O)c4ccc(NCCC5CCCOC5)c([N+](=O)[O-])c4)c(Oc4cnc5[nH]ccc5c4)c3)CC2)=C(c2ccc(C(F)(F)F)cc2Cl)C1 (centres unmarked) [Compound 45-1, 4-(4-{[2-(2-chloro-4-trifluoromethylphenyl)-4,4-dimethylcyclohex-1-enyl]methyl}-piperazin-1-yl)-N-({3-nitro-4-[((2-tetrahydropyran-3-yl)ethyl)amino]phenyl}sulfonyl)-2-(1H-pyrrolo[2,3-b]pyridin-5-yloxy)-benzamide]"
0.86,–,> 2000,"CC1(C)CCC(CN2CCN(c3ccc(C(=O)NS(=O)(=O)c4ccc(NCC5CCOCC5)c([N+](=O)[O-])c4)c(Oc4cnc5[nH]ccc5c4)c3)CC2)=C(c2ccc(Cl)cc2C(F)(F)F)C1 [Compound 3-1, 4-(4-{[2-(4-chloro-2-trifluoromethylphenyl)-4,4-dimethylcyclohex-1-enyl]methyl}-piperazin-1-yl)-N-({3-nitro-4-[(tetrahydro-2H-pyran-4-ylmethyl)amino]phenyl}sulfonyl)-2-(1H-pyrrolo[2,3-b]pyridin-5-yloxy)-benzamide]"
1.78,–,157,"CC1(C)CCC(CN2CCN(c3ccc(C(=O)NS(=O)(=O)c4ccc(NC[C@@H]5CCOC5)c([N+](=O)[O-])c4)c(Oc4cnc5[nH]ccc5c4)c3)CC2)=C(c2ccc(C(F)(F)F)cc2Cl)C1 [Compound 36-1, (S)-4-(4-{[2-(2-chloro-4-trifluoromethylphenyl)-4,4-dimethylcyclohex-1-enyl]methyl}-piperazin-1-yl)-N-({3-nitro-4-[((tetrahydrofuran-3-yl)methyl)amino]phenyl}sulfonyl)-2-(1H-pyrrolo[2,3-b]pyridin-5-yloxy)-benzamide]"
2.32,–,122,"COCC(=O)N1CCOC(CCNc2ccc(S(=O)(=O)NC(=O)c3ccc(N4CCN(CC5=C(c6ccc(C(F)(F)F)cc6Cl)CC(C)(C)CC5)CC4)cc3Oc3cnc4[nH]ccc4c3)cc2[N+](=O)[O-])C1 (centres unmarked) [Compound 72-1, 4-(4-{[2-(2-chloro-4-trifluoromethylphenyl)-4,4-dimethylcyclohex-1-enyl]methyl}-piperazin-1-yl)-N-({3-nitro-4-[(2-(4-(2-methoxyacetyl)morpholin-2-yl)ethyl)amino]phenyl}sulfonyl)-2-(1H-pyrrolo[2,3-b]pyridin-5-yloxy)-benzamide]"
1.59,–,142,"CC1(C)CCC(CN2CCN(c3ccc(C(=O)NS(=O)(=O)c4ccc(NC[C@@H]5CCCO5)c([N+](=O)[O-])c4)c(Oc4cnc5[nH]ccc5c4)c3)CC2)=C(c2ccc(C(F)(F)F)cc2Cl)C1 [Compound 37-1, (S)-4-(4-{[2-(2-chloro-4-trifluoromethylphenyl)-4,4-dimethylcyclohex-1-enyl]methyl}-piperazin-1-yl)-N-({3-nitro-4-[((tetrahydrofuran-2-yl)methyl)amino]phenyl}sulfonyl)-2-(1H-pyrrolo[2,3-b]pyridin-5-yloxy)-benzamide]"

Compound,IC50 (BCL-2/BAK) [nM],IC50 (RS4;11 cells) [nM],IC50 (BCL-XL/BAK) [nM]
"4-(4-{[2-(2-chloro-4-trifluoromethylphenyl)-4,4-dimethylcyclohex-1-enyl]methyl}-piperazin-1-yl)-N-({3-nitro-4-[(4-((trifluoromethyl) sulfonyl)morpholin-2-yl)methyl)amino]phenyl}sulfonyl)-2-(1H-pyrrolo[2,3-b]pyridin-5-yloxy)-benzamide [Compound 56-1]",3.55,–,381
